Laboratory results reported in patent publication US20020132809A1, “Heterocyclic carboxamide derivatives as inhibitors of nitric oxide production” (Fujisawa Pharmaceutical Co. Ltd., priority 1998, published 2002).

`CCn1c(-c2ccc(-n3ccnc3)cc2)cnc1[C@H](Cc1ccccn1)N(C=O)c1cc2cc([N+](=O)[O-])ccc2o1.Cl.Cl.Cl` and `CCn1c(-c2ccc(-n3ccnc3)cc2)cnc1[C@H](Cc1ccccn1)N(C=O)c1cc2cc(Cl)ccc2o1.Cl.Cl.Cl` cannot be ordered by melting point: 190 to 200 °C for the first, 198 to 203 °C for the second.

First: CCn1c(-c2ccc(-n3ccnc3)cc2)cnc1[C@H](Cc1ccccn1)N(C=O)c1cc2cc(OC)ccc2o1.Cl.Cl.Cl
Second: CCn1c(-c2ccc(-n3ccnc3)cc2)cnc1[C@H](Cc1ccccn1)N(C=O)c1cc2cc(C(F)(F)F)ccc2o1 [Example 29, (1S)-N-[1-[1-Ethyl-5-[4-(1-imidazolyl)phenyl]imidazol-2-yl]-2-(2-pyridyl)ethyl][5-(trifluoromethyl)benzo[b]furan-2-yl]formamide]
The melting point of the first is higher: 190 to 195 °C for the first, 85 to 89 °C for the second.

First: Cn1c(-c2ccc(-c3ccccc3)cc2)cnc1[C@H](Cc1ccccn1)N(C=O)c1cc2cc(Br)ccc2o1 [Compound (b), (1S)-N-[1-[5-(4-biphenylyl)-1-methylimidazol-2-yl]-2-(2-pyridyl)ethyl](5-bromobenzo[b]furan-2-yl)formamide]
Second: Cn1c(-c2ccc(-c3ccccc3)cc2)cnc1[C@H](Cc1ccccn1)N(C=O)c1cc2cc(Cl)ccc2o1 [Example 10, (1S)-N-[1-[5-(4-Biphenylyl)-1-methylimidazol-2-yl]-2-(2-pyridyl)-ethyl](5-chlorobenzo[b]furan-2-yl)formamide]
The melting point of the first is higher: 180.5 to 181.5 °C for the first, 171 to 174 °C for the second.

Compared with `Cn1c(-c2ccc(-n3ccnc3)cc2)cnc1[C@H](Cc1ccccn1)N(C=O)c1cc2ccccc2s1` [Compound (c), (1S)-(benzo[b]thiophen-2-yl)-N-[1-[5-[4-(1-imidazolyl) -phenyl]-1-methylimidazol-2-yl]-2-(2-pyridyl)ethyl]formamide], `Cn1c(-c2ccc(-n3ccnc3)cc2)cnc1[C@H](Cc1ccccn1)N(C=O)c1cc2cc([N+](=O)[O-])ccc2s1` [Compound (d), (1S)-N-[1-[5-[4-(1-imidazolyl)phenyl]-1-methylimidazol-2-yl]-2-(2-pyridyl)ethyl](5-nitrobenzo[b]thiophen-2-yl)formamide] is higher in melting point: 190 to 193 °C for the first, 228 to 231 °C for the second.

First: COc1ccc2oc(N(C=O)[C@@H](Cc3ccccn3)c3ncc(-c4ccc([N+](=O)[O-])cc4)n3C)cc2c1 [Compound (f), (1S)-(5-methoxybenzo[b]furan-2-yl)-N-[1-[1-methyl-5-(4-nitrophenyl)imidazol-2-yl]-2-(2-pyridyl)ethyl]formamide]
Second: Cn1c(-c2ccc([N+](=O)[O-])cc2)cnc1[C@H](Cc1ccccn1)N(C=O)c1cc2cc(Cl)ccc2o1 [Example 12, (1S)-(5-Chlorobenzo[b]furan-2-yl)-N-[1-[1-methyl-5-(4-nitrophenyl)imidazol-2-yl]-2-(2-pyridyl)ethyl]formamide]
The melting point of the first is higher: 210 to 211 °C for the first, 199 to 201 °C for the second.

Compared with `Cn1c(-c2ccc(N3CCOCC3)cc2)cnc1[C@H](Cc1ccccn1)N(C=O)c1cc2cc(Br)ccc2o1` [Example 2, (1S)-(5-Bromobenzo[b]furan-2-yl)-N-[1-[1-methyl-5-(4-morpholinophenyl)imidazol-2-yl]-2-(2-pyridyl)ethyl]formamide], `Cn1c(-c2ccc(N3CCOCC3)cc2)cnc1[C@H](Cc1ccccn1)N(C=O)c1cc2cc(F)ccc2o1` [Example 4, (1S)-(5-Fluorobenzo[b]furan-2-yl)-N-[1-[1-methyl-5-(4-morpholinophenyl)imidazol-2-yl]-2-(2-pyridyl)ethyl]formamide] is lower in melting point: 173 to 174 °C for the first, 130 to 132 °C for the second.

Compared with `COc1ccc2oc(N(C=O)[C@@H](Cc3ccccn3)c3ncc(-c4ccc(N5CCOCC5)cc4)n3C)cc2c1` [Example 3, (1S)-(5-Methoxybenzo[b]furan-2-yl)-N-[1-[1-methyl-5-(4-morpholinophenyl)imidazol-2-yl]-2-(2-pyridyl)ethyl]formamide], `Cc1ccc2oc(N(C=O)[C@@H](Cc3ccccn3)c3ncc(-c4ccc(N5CCOCC5)cc4)n3C)cc2c1` [Example 5, (1S)-(5-Methylbenzo[b]furan-2-yl)-N-[1-[1-methyl-5-(4-morpholinophenyl)imidazol-2-yl]-2-(2-pyridyl)ethyl]formamide] is higher in melting point: 122 to 124 °C for the first, 125 to 127 °C for the second.

Compared with `Cn1c(-c2ccc(N3CCOCC3)cc2)cnc1[C@H](Cc1ccccn1)N(C=O)c1nc2cc(Cl)ccc2s1` [Example 6, (1S)-(5-Chlorobenzothiazol-2-yl)-N-[1-[1-methyl-5-(4-morpholinophenyl)imidazol-2-yl]-2-(2-pyridyl)ethyl]formamide], `Cn1c(-c2ccc(N3CCOCC3)c(F)c2)cnc1[C@H](Cc1ccccn1)N(C=O)c1cc2cc(Cl)ccc2o1` [Example 19, (1S)-(5-Chlorobenzo[b]furan-2-yl)-N-[1-[5-(3-fluoro-4-morpholinophenyl)-1-methylimidazol-2-yl]-2-(2-pyridyl)ethyl]formamide] is higher in melting point: 96 to 99 °C for the first, 134 to 135 °C for the second.

First: COc1ccc2oc(N(C=O)[C@@H](Cc3ccccn3)c3ncc(-c4ccc(-c5ccccc5)cc4)n3C)cc2c1 [Example 9, (1S)-N-[1-[5-(4-Biphenylyl)-1-methylimidazol-2-yl]-2-(2-pyridyl)-ethyl](5-methoxybenzo[b]furan-2-yl)formamide]
Second: Cn1c(-c2ccc(-c3ccco3)cc2)cnc1[C@H](Cc1ccccn1)N(C=O)c1cc2cc(Cl)ccc2o1 [Example 16, (1S)-(5-Chlorobenzo[b]furan-2-yl)-N-[1-[5-[4-(2-furyl)phenyl]-1-methylimidazol-2-yl]-2-(2-pyridyl)ethyl]formamide]
The melting point of the first is higher: 150 to 152 °C for the first, 144 to 146 °C for the second.

First: Cn1c(-c2ccc(-n3ccnc3)cc2)cnc1[C@H](Cc1ccccn1)N(C=O)c1cc2ccc(Cl)cc2o1 [Example 11, (1S)-(6-Chlorobenzo[b]furan-2-yl)-N-[1-[5-[4-(1-imidazolyl)-phenyl]-1-methylimidazol-2-yl]-2-(2-pyridyl)ethyl]formamide]
Second: Cn1c(-c2ccc(-n3ccnc3)cc2)cnc1[C@H](Cc1ccccn1)N(C=O)c1cc2cc(C=O)ccc2o1 [Example 24, (1S)-(5-Formylbenzo[b]furan-2-yl)-N-[1-[5-[4-(1-imidazolyl)-phenyl]-1-methylimidazol-2-yl]-2-(2-pyridyl)ethyl]formamide]
The melting point of the first is lower: 165 to 169 °C for the first, 194 to 197 °C for the second.

First: Cc1nccn1-c1ccc(-c2cnc([C@H](Cc3ccccn3)N(C=O)c3cc4ccccc4[nH]3)n2C)cc1 [Example 14, (1S)-(Indol-2-yl)-N-[1-[1-methyl-5-[4-(2-methylimidazol-1-yl)-phenyl]imidazol-2-yl]-2-(2-pyridyl)ethyl]formamide]
Second: Cn1ccnc1-c1ccc(-c2cnc([C@H](Cc3ccccn3)N(C=O)c3cc4ccccc4[nH]3)n2C)cc1 [Example 22, (1S)-(Indol-2-yl)-N-[1-[5-[4-(1-methylimidazol-2-yl)phenyl]-1-methylimidazol-2-yl]-2-(2-pyridyl)ethyl]formamide]
The melting point of the first is lower: 207 to 211 °C for the first, 218 to 222 °C for the second.

Compared with `Cc1nccn1-c1ccc(-c2cnc([C@H](Cc3ccccn3)N(C=O)c3cc4ccccc4o3)n2C)cc1` [Example 15, (1S)-(Benzo[b]furan-2-yl)-N-[1-[1-methyl-5-[4-(2-methylimidazol-1-yl)phenyl]imidazol-2-yl]-2-(2-pyridyl)ethyl]formamide], `Cn1c(-c2ccc(-n3ccnc3)cc2)cnc1[C@H](Cc1ccccn1)N(C=O)c1cc2cccnc2o1` [Example 27, (1S)-(Furo[2,3-b]pyridin-2-yl)-N-[1-[5-[4-(1-imidazolyl)phenyl]-1-methylimidazol-2-yl]-2-(2-pyridyl)ethyl]formamide] is lower in melting point: 167 to 171 °C for the first, 108 to 110 °C for the second.

First: Cn1c(-c2ccc(-c3cccs3)cc2)cnc1[C@H](Cc1ccccn1)N(C=O)c1cc2cc(Cl)ccc2o1 [Example 17, (1S)-(5-Chlorobenzo[b]furan-2-yl)-N-[1-[1-methyl-5-[4-(2-thienyl)-phenyl]imidazol-2-yl]-2-(2-pyridyl)ethyl]formamide]
Second: Cn1c(-c2ccc(-c3nccs3)cc2)cnc1[C@H](Cc1ccccn1)N(C=O)c1cc2cc(Cl)ccc2o1 [Example 18, (1S)-(5-Chlorobenzo[b]furan-2-yl)-N-[1-[1-methyl-5-[4-(2-thiazolyl)phenyl]imidazol-2-yl]-2-(2-pyridyl)ethyl]formamide]
The melting point of the first is lower: 110 to 114 °C for the first, 144 to 146 °C for the second.

Compared with `Cn1c(-c2cccs2)cnc1[C@H](Cc1ccccn1)N(C=O)c1cc2cc(Cl)ccc2o1` [Example 20, (1S)-(5-Chlorobenzo[b]furan-2-yl)-N-[1-[1-methyl-5-(2-thienyl)-imidazol-2-yl]-2-(2-pyridyl)ethyl]formamide], `Cn1c(-c2ccc(-n3ccnc3)cc2)cnc1[C@H](Cc1ccccn1)N(C=O)c1cc2cc(C#N)ccc2o1` [Example 25, (1S)-(5-Cyanobenzo[b]furan-2-yl)-N-[1-[5-[4-(1-imidazolyl)-phenyl]-1-methylimidazol-2-yl]-2-(2-pyridyl)ethyl]formamide] is higher in melting point: 70 to 74 °C for the first, 174 to 176 °C for the second.

First: Cc1nc([C@H](Cc2ccccn2)N(C=O)c2cc3ccccc3[nH]2)n(C)c1-c1ccc(-n2ccnc2)cc1 [Example 23, (1S)-N-[1-[5-[4-(1-Imidazolyl)phenyl]-1,4-dimethylimidazol-2-yl]-2-(2-pyridyl)ethyl](indol-2-yl)formamide]
Second: Cn1c(-c2ccc(-n3cnc4ccccc43)cc2)cnc1[C@H](Cc1ccccn1)N(C=O)c1cc2ccccc2[nH]1 [Example 31, (1S)-N-[1-[5-[4-(1-Benzimidazolyl)phenyl]-1-methylimidazol-2-yl]-2-(2-pyridyl)ethyl](indol-2-yl)formamide]
The melting point of the first is lower: 156 to 157 °C for the first, 233 to 237 °C for the second.

Compound `CCCn1c(-c2ccc(-n3ccnc3)cc2)cnc1[C@H](Cc1ccccn1)N(C=O)c1cc2cc(C(F)(F)F)ccc2o1` [Example 30, (1S)-N-[1-[5-[4-(1-Imidazolyl)phenyl]-1-propylimidazol-2-yl]-2-(2-pyridyl)ethyl][5-(trifluoromethyl)benzo[b]furan-2-yl]formamide] has a melting point of 92 to 98 °C.

With `CCn1c(-c2ccc(-n3ccnc3)cc2)cnc1[C@H](Cc1ccncc1)N(C=O)c1cc2ccccc2[nH]1` [Compound (e), (1S)-N-[1-[1-ethyl-5-[4-(1-imidazolyl)phenyl]imidazol-2-yl]-2-(4-pyridyl)ethyl](indol-2-yl)formamide] the melting point was 255 to 260 °C (dec.).
